Source: ChEMBL document CHEMBL1201861, “Genomics of Drug Sensitity in Cancer screening data, Wellcome Trust Sanger Institute”

Columns and labels:
Assay in all cases: cells
[1] = system: COR-L23; format: functional, cell-based, Homo sapiens; details: Homo sapiens, COR-L23;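 note: cell viability assay measuring how strongly compounds suppress growth of COR-L23 cells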
Description: SANGER: Inhibition of human COR-L23 cell growth in a cell viability assay.

[2] = system: Capan-2; format: functional, cell-based, Homo sapiens; details: Homo sapiens, Capan-2;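 note: Capan-2 cell growth inhibition, read out with a viability assay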
Description: SANGER: Inhibition of human Capan-2 cell growth in a cell viability assay.

[3] = system: DBTRG-05MG; format: functional, cell-based, Homo sapiens; details: Homo sapiens, DBTRG-05MG;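 note: cell viability assay measuring growth inhibition of human DBTRG-05MG cells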
Description: SANGER: Inhibition of human DBTRG-05MG cell growth in a cell viability assay.

[4] = system: DEL; format: functional, cell-based; details: Homo sapiens;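 note: growth inhibition of the human DEL cell line, read out with a cell viability assay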
Description: SANGER: Inhibition of human DEL cell growth in a cell viability assay.

[5] = system: FTC-133; format: functional, cell-based, Homo sapiens; details: Homo sapiens, FTC-133
[6] = system: GMS-10; format: functional, cell-based, Homo sapiens; details: Homo sapiens, GMS-10;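 note: growth inhibition of GMS-10 cells, read out as cell viability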
Description: SANGER: Inhibition of human GMS-10 cell growth in a cell viability assay.

[7] = system: HT-144; format: functional, cell-based, Homo sapiens; details: Homo sapiens, HT-144
Description: SANGER: Inhibition of human HT-144 cell growth in a cell viability assay.

[8] = system: HT-29; format: functional, cell-based, Homo sapiens; details: Homo sapiens, HT-29;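 note: growth inhibition of human HT-29 cells, read out by a cell viability assay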
Description: SANGER: Inhibition of human HT-29 cell growth in a cell viability assay.

[9] = system: HT-3; format: functional, cell-based, Homo sapiens; details: Homo sapiens, HT-3;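 note: growth inhibition measured with a cell viability readout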
Description: SANGER: Inhibition of human HT-3 cell growth in a cell viability assay.

[10] = system: HuP-T3; format: functional, cell-based, Homo sapiens; details: Homo sapiens, HuP-T3;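 note: HuP-T3 cell growth inhibition, read out with a cell viability assay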
Description: SANGER: Inhibition of human HuP-T3 cell growth in a cell viability assay.

[11] = system: IGROV-1; format: functional, cell-based, Homo sapiens; details: Homo sapiens, IGROV-1;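 note: reduction of IGROV-1 cell growth, read out with a viability assay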
Description: SANGER: Inhibition of human IGROV-1 cell growth in a cell viability assay.

[12] = system: IST-MEL1; format: functional, cell-based, Homo sapiens; details: Homo sapiens, IST-MEL1;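 note: growth inhibition of the cell line, read out with a cell viability assay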
Description: SANGER: Inhibition of human IST-MEL1 cell growth in a cell viability assay.

[13] = system: IST-SL1; format: functional, cell-based, Homo sapiens; details: Homo sapiens, IST-SL1;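 note: growth inhibition of human IST-SL1 cells, read out with a cell viability assay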
Description: SANGER: Inhibition of human IST-SL1 cell growth in a cell viability assay.

[14] = system: JVM-2; format: functional, cell-based; details: Homo sapiens;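 note: growth inhibition of JVM-2 cells determined by a cell viability assay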
Description: SANGER: Inhibition of human JVM-2 cell growth in a cell viability assay.

[15] = system: KARPAS-299; format: functional, cell-based; details: Homo sapiens
Description: SANGER: Inhibition of human KARPAS-299 cell growth in a cell viability assay.

[16] = system: KGN; format: functional, cell-based, Homo sapiens; details: Homo sapiens, KGN;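 note: growth inhibition of KGN cells, read out with a cell viability assay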
Description: SANGER: Inhibition of human KGN cell growth in a cell viability assay.

[17] = system: KOSC-2; format: functional, cell-based, Homo sapiens; details: Homo sapiens, KOSC-2;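 note: growth inhibition of KOSC-2 cells, read out by a cell viability assay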
Description: SANGER: Inhibition of human KOSC-2 cell growth in a cell viability assay.

[18] = system: KYSE-510; format: functional, cell-based, Homo sapiens; details: Homo sapiens, KYSE-510;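 note: cell viability readout used to measure how strongly growth of the cell line is suppressed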
Description: SANGER: Inhibition of human KYSE-510 cell growth in a cell viability assay.

[19] = system: KYSE-70 cell line; format: functional, cell-based, Homo sapiens; details: Homo sapiens, KYSE-70;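 note: cell viability assay read-out, with IC50 expressing suppression of KYSE-70 cell growth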
Description: SANGER: Inhibition of human KYSE-70 cell growth in a cell viability assay.

[20] = system: LC-2-ad; format: functional, cell-based, Homo sapiens; details: Homo sapiens, LC-2-ad;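 note: growth inhibition of human LC-2-ad cells, read out with a cell viability assay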
Description: SANGER: Inhibition of human LC-2-ad cell growth in a cell viability assay.

[21] = system: LCLC-103H cell line; format: functional, cell-based, Homo sapiens; details: Homo sapiens, LCLC-103H
Description: SANGER: Inhibition of human LCLC-103H cell growth in a cell viability assay.

[22] = system: LOX IMVI; format: functional, cell-based; details: Homo sapiens
Description: SANGER: Inhibition of human LOXIMVI cell growth in a cell viability assay.

[23] = system: LS-1034; format: functional, cell-based, Homo sapiens; details: Homo sapiens, LS-1034
Description: SANGER: Inhibition of human LS-1034 cell growth in a cell viability assay.

[24] = system: LU-134-A; format: functional, cell-based; details: Homo sapiens
Description: SANGER: Inhibition of human LU-134-A cell growth in a cell viability assay.

[25] = system: MC116; format: functional, cell-based; details: Homo sapiens;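 note: growth inhibition of MC116 cells, read out with a cell viability assay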
Description: SANGER: Inhibition of human MC116 cell growth in a cell viability assay.

[26] = system: MN-60; format: functional, cell-based; details: Homo sapiens;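 note: growth inhibition of the MN-60 cell line, determined with a cell viability assay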
Description: SANGER: Inhibition of human MN-60 cell growth in a cell viability assay.

[27] = system: MPP-89; format: functional, cell-based, Homo sapiens; details: Homo sapiens, MPP-89;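 note: growth inhibition of human MPP-89 cells, read out with a cell viability assay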
Description: SANGER: Inhibition of human MPP-89 cell growth in a cell viability assay.

[28] = system: MZ1-PC; format: functional, cell-based, Homo sapiens; details: Homo sapiens, MZ1-PC;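 note: cell viability assay measuring growth inhibition of human MZ1-PC cells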
Description: SANGER: Inhibition of human MZ1-PC cell growth in a cell viability assay.

[29] = system: MZ2-MEL; format: functional, cell-based, Homo sapiens; details: Homo sapiens, MZ2-MEL;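 note: growth inhibition of MZ2-MEL cells read out with a cell viability assay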
Description: SANGER: Inhibition of human MZ2-MEL cell growth in a cell viability assay.

[30] = system: NCI-H1623; format: functional, cell-based, Homo sapiens; details: Homo sapiens, NCI-H1623;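 note: cell viability assay used as the read-out for growth inhibition of NCI-H1623 cells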
Description: SANGER: Inhibition of human NCI-H1623 cell growth in a cell viability assay.

[31] = system: NCI-H2228; format: functional, cell-based, Homo sapiens; details: Homo sapiens, NCI-H2228;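 note: growth inhibition of human NCI-H2228 cells, read out by a cell viability assay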
Description: SANGER: Inhibition of human NCI-H2228 cell growth in a cell viability assay.

[32] = system: NCI-H23; format: functional, cell-based, Homo sapiens; details: Homo sapiens, NCI-H23;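 note: cell viability assay measuring growth inhibition of NCI-H23 cells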
Description: SANGER: Inhibition of human NCI-H23 cell growth in a cell viability assay.

[33] = system: NCI-H650; format: functional, cell-based, Homo sapiens; details: Homo sapiens, NCI-H650;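 note: growth inhibition of NCI-H650 cells, read out by a viability assay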
Description: SANGER: Inhibition of human NCI-H650 cell growth in a cell viability assay.

[34] = system: NTERA-2-cl-D1; format: functional, cell-based, Homo sapiens; details: Homo sapiens, NTERA-2-cl-D1;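 note: inhibition of cell growth, measured with a cell viability assay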
Description: SANGER: Inhibition of human NTERA-S-cl-D1 cell growth in a cell viability assay.

[35] = system: OAW-42; format: functional, cell-based, Homo sapiens; details: Homo sapiens, OAW-42;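 note: growth inhibition of OAW-42 cells, read out with a cell viability assay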
Description: SANGER: Inhibition of human OAW-42 cell growth in a cell viability assay.

[36] = system: OE33; format: functional, cell-based, Homo sapiens; details: Homo sapiens, OE33;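 note: growth inhibition of human OE33 cells, measured by a cell viability assay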
Description: SANGER: Inhibition of human OE33 cell growth in a cell viability assay.

[37] = system: PANC-08-13; format: functional, cell-based, Homo sapiens; details: Homo sapiens, PANC-08-13;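 note: cell growth inhibition, measured with a cell viability assay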
Description: SANGER: Inhibition of human PANC-08-13 cell growth in a cell viability assay.

[38] = system: SH-4; format: functional, cell-based, Homo sapiens; details: Homo sapiens, SH-4;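 note: growth inhibition of SH-4 cells, read out with a cell viability assay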
Description: SANGER: Inhibition of human SH-4 cell growth in a cell viability assay.

[39] = system: SK-MEL-1; format: functional, cell-based; details: Homo sapiens;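 note: growth inhibition of human SK-MEL-1 cells, read out by a cell viability assay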
Description: SANGER: Inhibition of human SK-MEL-1 cell growth in a cell viability assay.

[40] = system: SK-MEL-2; format: functional, cell-based, Homo sapiens; details: Homo sapiens, SK-MEL-2;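 note: growth inhibition of human SK-MEL-2 cells measured with a cell viability assay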
Description: SANGER: Inhibition of human SK-MEL-2 cell growth in a cell viability assay.

[41] = system: SK-N-AS; format: functional, cell-based, Homo sapiens; details: Homo sapiens, SK-N-AS;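 note: growth inhibition of human SK-N-AS cells, measured with a cell viability assay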
Description: SANGER: Inhibition of human SK-N-AS cell growth in a cell viability assay.

[42] = system: SW1710; format: functional, cell-based, Homo sapiens; details: Homo sapiens, SW1710;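 note: growth inhibition of SW1710 cells, determined with a cell viability assay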
Description: SANGER: Inhibition of human SW1710 cell growth in a cell viability assay.

[43] = system: SW837; format: functional, cell-based, Homo sapiens; details: Homo sapiens, SW837;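 note: growth inhibition of SW837 cells, determined with a cell viability assay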
Description: SANGER: Inhibition of human SW837 cell growth in a cell viability assay.

[44] = system: BHT-101; format: functional, cell-based, Homo sapiens; details: Homo sapiens, BHT-101
Description: SANGER: Inhibition of human BHT-101 cell growth in a cell viability assay.

[45] = system: CAL-62; format: functional, cell-based, Homo sapiens; details: Homo sapiens, CAL-62;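 note: growth inhibition of CAL-62 cells, read out with a cell viability assay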
Description: SANGER: Inhibition of human CAL-62 cell growth in a cell viability assay.

[46] = system: TE-11; format: functional, cell-based, Homo sapiens; details: Homo sapiens, TE-11;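 note: growth inhibition of human TE-11 cells, read out by a cell viability assay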
Description: SANGER: Inhibition of human TE-11 cell growth in a cell viability assay.

[47] = system: TE-12; format: functional, cell-based; details: Homo sapiens;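 note: growth inhibition of TE-12 cells, read out by a cell viability assay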
Description: SANGER: Inhibition of human TE-12 cell growth in a cell viability assay.

[48] = system: UO-31; format: functional, cell-based; details: Homo sapiens;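 note: cell viability assay measuring inhibition of cell growth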
Description: SANGER: Inhibition of human U031 cell growth in a cell viability assay.

[49] = system: U-251; format: functional, cell-based, Homo sapiens; details: Homo sapiens, U-251;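 note: growth inhibition of human U-251 cells, read out through a cell viability assay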
Description: SANGER: Inhibition of human U251 cell growth in a cell viability assay.

O=C1N=C(NCc2cccs2)S/C1=C\c1ccc2ncccc2c1
IC50 [1]: > 5 µM
IC50 [2]: > 5 µM
IC50 [3]: > 5 µM
IC50 [4]: > 5 µM
IC50 [5]: > 5 µM
IC50 [6]: > 5 µM
IC50 [7]: > 5 µM
IC50 [8]: > 5 µM
IC50 [9]: > 5 µM
IC50 [10]: > 5 µM
IC50 [11]: > 5 µM
IC50 [12]: > 5 µM
IC50 [13]: > 5 µM
IC50 [14]: > 5 µM
IC50 [15]: > 5 µM
IC50 [16]: > 5 µM
IC50 [17]: 3.45 µM
IC50 [18]: > 5 µM
IC50 [19]: > 5 µM
IC50 [20]: > 5 µM
IC50 [21]: > 5 µM
IC50 [22]: > 5 µM
IC50 [23]: > 5 µM
IC50 [24]: > 5 µM
IC50 [25]: > 5 µM
IC50 [26]: 4.38 µM
IC50 [27]: > 5 µM
IC50 [28]: > 5 µM
IC50 [29]: > 5 µM
IC50 [30]: > 5 µM
IC50 [31]: > 5 µM
IC50 [32]: > 5 µM
IC50 [33]: > 5 µM
IC50 [34]: > 5 µM
IC50 [35]: > 5 µM
IC50 [36]: > 5 µM
IC50 [37]: > 5 µM
IC50 [38]: > 5 µM
IC50 [39]: > 5 µM
IC50 [40]: > 5 µM
IC50 [41]: > 5 µM
IC50 [42]: 1.61 µM
IC50 [43]: > 5 µM
IC50 [44]: > 5 µM
IC50 [45]: > 5 µM
IC50 [46]: > 5 µM
IC50 [47]: > 5 µM
IC50 [48]: > 5 µM
IC50 [49]: 1.64 µM

COc1ccc(-c2ccc3c(N4CCOC[C@@H]4C)nc(N4CCOC[C@@H]4C)nc3n2)cc1CO [AZD-8055]
IC50 [1]: 1.35 µM
IC50 [2]: > 2 µM
IC50 [3]: > 2 µM
IC50 [4]: 0.968 µM
IC50 [5]: > 2 µM
IC50 [6]: 1.75 µM
IC50 [7]: 1.17 µM
IC50 [8]: > 2 µM
IC50 [9]: 1.66 µM
IC50 [10]: > 2 µM
IC50 [11]: 0.675 µM
IC50 [12]: 1.19 µM
IC50 [13]: > 2 µM
IC50 [14]: > 2 µM
IC50 [15]: > 2 µM
IC50 [16]: 0.61 µM
IC50 [17]: 1.08 µM
IC50 [18]: > 2 µM
IC50 [19]: 1.74 µM
IC50 [20]: 0.221 µM
IC50 [21]: > 2 µM
IC50 [22]: 0.551 µM
IC50 [23]: > 2 µM
IC50 [24]: 1.03 µM
IC50 [25]: > 2 µM
IC50 [26]: 0.678 µM
IC50 [27]: 0.469 µM
IC50 [28]: > 2 µM
IC50 [29]: 0.409 µM
IC50 [30]: 0.763 µM
IC50 [31]: 1.27 µM
IC50 [32]: 1.56 µM
IC50 [33]: 0.791 µM
IC50 [34]: 0.701 µM
IC50 [35]: 0.592 µM
IC50 [36]: 0.799 µM
IC50 [37]: 0.574 µM
IC50 [38]: 1.08 µM
IC50 [39]: > 2 µM
IC50 [40]: 0.642 µM
IC50 [41]: > 2 µM
IC50 [42]: 0.632 µM
IC50 [43]: > 2 µM
IC50 [44]: 0.408 µM
IC50 [45]: 0.799 µM
IC50 [46]: > 2 µM
IC50 [47]: 1.41 µM
IC50 [48]: > 2 µM
IC50 [49]: > 2 µM

COc1ccc(C2=N[C@@H](c3ccc(Cl)cc3)[C@@H](c3ccc(Cl)cc3)N2C(=O)N2CCNC(=O)C2)c(OC(C)C)c1 [NUTLIN-3]
IC50 [1]: > 8 µM
IC50 [2]: > 8 µM
IC50 [3]: > 8 µM
IC50 [4]: > 8 µM
IC50 [5]: > 8 µM
IC50 [6]: > 8 µM
IC50 [7]: 2.65 µM
IC50 [8]: > 8 µM
IC50 [9]: > 8 µM
IC50 [10]: > 8 µM
IC50 [11]: > 8 µM
IC50 [12]: > 8 µM
IC50 [13]: > 8 µM
IC50 [14]: > 8 µM
IC50 [15]: > 8 µM
IC50 [16]: 3.08 µM
IC50 [17]: > 8 µM
IC50 [18]: > 8 µM
IC50 [19]: > 8 µM
IC50 [20]: > 8 µM
IC50 [21]: > 8 µM
IC50 [22]: 3.86 µM
IC50 [23]: > 8 µM
IC50 [24]: > 8 µM
IC50 [25]: > 8 µM
IC50 [26]: 3.44 µM
IC50 [27]: > 8 µM
IC50 [28]: > 8 µM
IC50 [29]: 4.5 µM
IC50 [30]: > 8 µM
IC50 [31]: > 8 µM
IC50 [32]: > 8 µM
IC50 [33]: > 8 µM
IC50 [34]: > 8 µM
IC50 [35]: > 8 µM
IC50 [36]: > 8 µM
IC50 [37]: > 8 µM
IC50 [38]: > 8 µM
IC50 [39]: > 8 µM
IC50 [40]: > 8 µM
IC50 [41]: > 8 µM
IC50 [42]: > 8 µM
IC50 [43]: > 8 µM
IC50 [44]: > 8 µM
IC50 [45]: > 8 µM
IC50 [46]: > 8 µM
IC50 [47]: > 8 µM
IC50 [48]: > 8 µM
IC50 [49]: > 8 µM
